Test results as given in US9540332B2, “Benzimidazole derivatives as selective blockers of persistent sodium current” (Allergan, Inc., priority 2011, dated 2017).
“Also recorded” adds a separate entry of the source.

Assays:
[1] = tested on: seizures induced by a 6 Hz alternating current in mice; assay: 6 Hz seizure model; assay type: in vivo; conditions: for Protected/Tested: 6 Hz 32 milliamp; for Protected/Tested / Deaths: 0.50 hr; for Deaths: 6 Hz
[2] = tested on: blue light induced photoreceptor injury; assay: blue light induced photoreceptor injury (ERG and histology); assay type: in vivo, Sprague Dawley rat
Procedure: Exposure to blue light results in a loss of photoreceptor cells in the outer retina (arrows).
Hemotoxylin and Eosin stained retinal sections are imaged and outer nuclear layer (ONL) thickness and cell count is evaluated in 8 consecutive regions on either side of the optic nerve head (ONH) (A). In Sprague Dawley rat the typical ONL thickness and photoreceptor cell counts adjacent to the ONH are approximately 40 microns and 10 cells, respectively (B). The cell counts and thicknesses from a retinal section taken from the vertical meridian reveal that in naïve retinae they are stable from just adjacent to ONH in to the ora serata (C,D).
Rat eyes were cut parallel to the vertical meridian through the optic nerve head and several sections were collected. […] Within each […] region, 3 measurements, […] apart, were conducted, averaged and reported as ONL thickness (um). The number of rod and cone nuclei spanning the outer nuclear layer at each measurement site were counted manually and tabulated as photoreceptor #. For each animal, two to three sections were analyzed and averaged to give a final quantifiable value.

[3] = tested on: Experimental Autoimmune Encephalomyelitis (EAE); assay: Experimental Autoimmune Encephalomyelitis (EAE), clinical score and flash VEP; assay type: in vivo, rats
Excerpt: Encephalomyelitis (EAE). (A) Representative flash Visual Evoked Potential (VEP) traces from baseline and following the induction of EAE. Three distinct peaks, N1, P2, N2 are labeled in the traces, with P2 being the most reproducible. Note that following the induction of EAE the latency to the P2 peak is increased. This is associated with a poor visual outcome in Optic Neuritis in humans. […] The maximum clinical score is the score associated with the most severe paralysis each animal experienced during the daily observation period.

Nav1.3 = target: T1, Nav1.3 (Homo sapiens, UniProt Q9NY46); assay: gigohm-seal manual patch-clamp (MPC) on HEK cells stably transfected with sodium channels; assay type: cell-based
T1 construct: expressed in transfected cells; host or cells: HEK cells, stably transfected
T1 sequence (Q9NY46 whole entry): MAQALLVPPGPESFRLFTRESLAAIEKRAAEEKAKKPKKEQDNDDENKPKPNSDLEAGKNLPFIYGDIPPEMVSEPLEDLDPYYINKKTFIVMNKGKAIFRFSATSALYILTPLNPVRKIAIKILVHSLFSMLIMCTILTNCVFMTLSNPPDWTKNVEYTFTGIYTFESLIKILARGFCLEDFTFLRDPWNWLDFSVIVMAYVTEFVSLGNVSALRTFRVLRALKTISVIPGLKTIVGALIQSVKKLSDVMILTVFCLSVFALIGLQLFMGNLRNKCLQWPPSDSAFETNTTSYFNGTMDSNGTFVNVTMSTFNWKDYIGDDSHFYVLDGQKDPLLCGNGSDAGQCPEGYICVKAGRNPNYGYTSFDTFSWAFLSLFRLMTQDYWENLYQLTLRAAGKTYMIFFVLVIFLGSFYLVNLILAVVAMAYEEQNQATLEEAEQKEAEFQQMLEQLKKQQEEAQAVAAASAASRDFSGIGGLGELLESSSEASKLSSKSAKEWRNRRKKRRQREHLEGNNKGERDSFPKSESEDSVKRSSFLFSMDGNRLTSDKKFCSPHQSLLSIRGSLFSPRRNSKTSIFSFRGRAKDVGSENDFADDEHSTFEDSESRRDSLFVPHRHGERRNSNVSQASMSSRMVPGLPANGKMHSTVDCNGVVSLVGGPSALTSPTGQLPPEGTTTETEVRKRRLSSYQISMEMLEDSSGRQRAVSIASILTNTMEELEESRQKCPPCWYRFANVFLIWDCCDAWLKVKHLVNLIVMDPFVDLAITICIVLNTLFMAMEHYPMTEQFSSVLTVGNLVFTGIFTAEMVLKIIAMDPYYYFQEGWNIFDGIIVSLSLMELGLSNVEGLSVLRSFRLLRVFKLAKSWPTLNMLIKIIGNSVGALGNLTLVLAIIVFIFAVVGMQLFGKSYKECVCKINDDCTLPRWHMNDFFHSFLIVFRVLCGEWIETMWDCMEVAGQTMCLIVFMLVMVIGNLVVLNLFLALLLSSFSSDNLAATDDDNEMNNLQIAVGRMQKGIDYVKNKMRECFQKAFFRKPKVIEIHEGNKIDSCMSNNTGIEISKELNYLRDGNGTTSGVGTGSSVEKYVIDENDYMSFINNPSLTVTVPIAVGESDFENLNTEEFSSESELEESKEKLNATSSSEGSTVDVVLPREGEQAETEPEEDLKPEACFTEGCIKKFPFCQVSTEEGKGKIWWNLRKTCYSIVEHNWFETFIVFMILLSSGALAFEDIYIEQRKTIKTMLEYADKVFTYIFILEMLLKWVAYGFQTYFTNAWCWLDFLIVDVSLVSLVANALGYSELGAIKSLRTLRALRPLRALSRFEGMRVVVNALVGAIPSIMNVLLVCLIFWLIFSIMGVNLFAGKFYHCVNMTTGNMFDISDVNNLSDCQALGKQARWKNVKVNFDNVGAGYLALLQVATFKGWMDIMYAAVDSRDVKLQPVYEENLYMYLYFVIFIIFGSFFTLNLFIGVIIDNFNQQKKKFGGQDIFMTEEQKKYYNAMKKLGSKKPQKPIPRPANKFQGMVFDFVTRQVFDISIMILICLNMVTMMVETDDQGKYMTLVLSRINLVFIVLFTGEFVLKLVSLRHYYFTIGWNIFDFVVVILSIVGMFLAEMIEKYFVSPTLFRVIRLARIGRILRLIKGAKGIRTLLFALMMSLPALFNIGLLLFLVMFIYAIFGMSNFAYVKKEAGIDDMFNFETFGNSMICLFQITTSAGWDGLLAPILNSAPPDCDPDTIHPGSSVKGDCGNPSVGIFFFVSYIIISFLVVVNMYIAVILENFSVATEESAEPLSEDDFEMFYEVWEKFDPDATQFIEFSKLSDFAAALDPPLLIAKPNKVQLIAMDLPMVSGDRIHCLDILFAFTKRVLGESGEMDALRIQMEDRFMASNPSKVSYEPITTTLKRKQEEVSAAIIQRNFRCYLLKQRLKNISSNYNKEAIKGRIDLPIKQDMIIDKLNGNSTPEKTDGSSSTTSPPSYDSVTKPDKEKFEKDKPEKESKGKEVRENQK
Procedure: Therefore, the efficacy and selectivity of the identified persistent current antagonists were verified using conventional gigohm-seal manual patch-clamp (MPC).
MPC experiments were conducted on human embroynic kidney (HEK) cells stably transfected with sodium channels were plated on coverslips. Cells were patch clamped using standard patch-clamp techniques (Hamill, O. P., A. Marty, et al., 1981 Pflugers Arch. 391:85-100). Once sufficient persistent current was established, buffer was introduced into the chamber at a constant flow rate of […] until the persistent current stabilized. Subsequent concentration-response experiments were conducted using this same flow rate. After application of the compound, current amplitude was monitored until equilibrium was established. The data recorded at equilibrium was normalized to the control current measured during perfusion with control buffer in the absence of a test compound. Adequate solution perfusion and gigohm seal stability were monitored throughout the experiment. The compound's antagonism of persistent or transient sodium currents is expressed as the IC5O of block for the respective current (see Table 1). Selectivity for block of the persistent current was calculated as the ratio of the IC5O for the transient current divided by the IC5O for the persistent current.

[4] = tested on: rat cultured hippocampal pyramidal neurons; assay: spontaneous firing of cultured hippocampal neurons, whole cell current clamp; assay type: cell-based; conditions: 1 μM, FIG. 2
Procedure: Activity of the compounds on the rate of spontaneous firing of neurons was assessed in hippocampal neurons. Hippocampal cells from P-2 rats were cultured for 10-14 days prior to use. Cells were plated on laminin-coated cover slips that could be transferred to a perfusion chamber for conventional whole cell electrophysiological studies. Conventional whole cell current clamp methods were used to record steady state and spontaneous action potentials. Cells were held at their resting potential (Iclamp=0 pA) and spontaneous action potentials were recorded and followed over time. Healthy cells had low rates of spontaneous firing. Spontaneous firing rate increased with metabolic insults to cells, e.g. Mg^2+-depletion or with aging. Spontaneous firing appeared to occur more often in older cell cultures (10-14 days).
The “current clamp” mode was employed tomeasure frequency of spontaneous discharge and action potential bursting in the absence and presence of compound #3 (1 μM). […] The results of these experiments contribute to the efficacy profile of the compounds of the present invention.

[5] = tested on: mechanical allodynia produced by spinal nerve ligation; assay: spinal nerve ligation (Chung Model), mechanical allodynia, von Frey hairs; assay type: in vivo, rats
Procedure: To assess the actions of the presently claimed benzimdazole compounds in neuropathic pain their efficacy in reversing the mechanical allodynia produced by spinal nerve ligation (Chung Model) and reducing the thermal hyperalgesia produced by subcutaneous injection of capsaicin was determined.
In the Chung spinal nerve ligation model, rats are anesthetized before surgery. The surgical site is shaved and prepared either with betadine or Novacaine. Incision is made from the thoracic vertebra XIII down toward the sacrum. Muscle tissue is separated from the spinal vertebra (left side) at the L4-S2 levels. The L6 vertebra is located and the transverse process is carefully removed with a small rongeur to expose the L4-L6 spinal nerves. The L5 and L6 spinal nerves are isolated and tightly ligated with 6-0 silk thread. The same procedure is done on the right side as a control, except no ligation of the spinal nerves is performed. […]
Compounds to be tested were prepared as suspension in vehicle containing 2% sodium carboxymethylcellulose (CMC) and 1% Pluronic FI 27 by vigorous homogenization. […] Tactile allodynia was measured prior to and at increments of 15, 30, 60 and 90 minutes after drug administration using von Frey hairs that are a series of fine hairs with incremental differences in stiffness. […] The applied force has been calculated to range from 0.41 to 15.1 grams. […]

[6] = tested on: capsaicin-induced thermal hyperalgesia; assay: capsaicin-induced thermal hyperalgesia, plantar test; assay type: in vivo, rat; conditions: doses 10 mg/kg and above, i.p., FIG. 10
Excerpt: A second method for evaluating of 1,2 substituted benzimidazoles on neuropathic pain was to determine their effects on capsaicin-induced thermal hyperalgesia in the rat.
Peripherally administered capsaicin (the active agent in chili peppers) induces an acute, local, inflammatory response through actions on nociceptive sensory nerve endings (‘pain fibers”). In rats, intraplantar injection of capsaicin produces decease in withdrawal latency to radiant heat (thermal hyperalgesia). This primary hyperalgesia, observed at the site of injury, is characterized by sensitization to thermal and mechanical stimulation. Primary hyperalgesia, especially that elicited by noxious thermal stimulus, is mediated, in part, by sensitization of C-fiber mechanoheat (polymodal) receptors (Kennis, 1982; Konietzny and Hensel, 1983; Simone, et al, 1987). […]
Intraplantar injection of capsaicin ([…]) was used to induce thermal hyperalgesia, as described previously(Gilchrist et al., 1996). […] For this test, hind paw withdrawal latencies (PWLs) to a noxious thermal stimulus were determined using the technique described by Hargreaves et al. (1988) using a plantar test apparatus (PAW
Thermal Analgesia Meter instrument Department of Anesthesiology, UCSD, San Diego, Calif.). Time to remove paw from heat source is measured and expressed as the paw withdrawal latency. […]
assessed 30 minutes after capsaicin challenge. […]

Structure (SMILES): COc1cccc(OCc2nc3ccc(OCCC(C)C)cc3n2CC(C)C)c1 [Compound #2, 1-Isobutyl-2-(3-methoxy-phenoxymethyl)-6-(3-methyl-butoxy)-1H-benzimidazole]
- Protected/Tested ([1]; dose 12.5 mg/kg): 1/8
- Protected/Tested ([1]; dose 25.0 mg/kg): 3/8
- Protected/Tested ([1]; dose 50.0 mg/kg): 3/8
- Protected/Tested ([1]; dose 100.0 mg/kg): 5/8
- Protected/Tested ([1]; dose 200.0 mg/kg): 8/8
- Deaths ([1]; dose 12.5 mg/kg): 0
- Deaths ([1]; dose 25.0 mg/kg): 0
- Deaths ([1]; dose 50.0 mg/kg): 0
- Deaths ([1]; dose 100.0 mg/kg): 0
- Deaths ([1]; dose 200.0 mg/kg): 0
- EC50 in the 6 Hz seizure model ([1]; mice): 50.7 mg/kg
- predicted TD50 ([1]; mice): > 500 mg/kg
- retinal function and structure as determined by ERG and histology ([2]; 30 mg/kg i.p., 6 hour blue light exposure, FIG. 8): preserves retinal function and structure
- VEP latency (P2 peak) ([3]; 50 mg/kg, FIG. 11 B, C): preserves VEP latency
- maximum clinical score versus vehicle ([3]; FIG. 11): significantly (P<0.01) average lower clinical score
- initial clinical sign of paralysis ([3]; dose of 30 mg/kg, FIG. 11): significantly reduces

Structure (SMILES): C=C(C)Cn1c(COc2cccc(OC)c2)nc2ccccc21 [Compound #3, 1-[1-(2-methylprop-2-enyl)benzimidazol-2-ylmethoxy]-3-methoxybenzene]
- concentration blocking 50% of the persistent current (Nav1.3; FIG. 1): low to submicromolar
- IC50 (Nav1.3; FIG. 1, read-out: effective dose for blocking the transient current): > 30 µM
- bursting activity (spontaneous bursts of action potentials) [4]: bursting activity was reduced
- spontaneous discharge of action potentials [4]: potently decreased
- retinal function as determined by ERG (b-wave and a-wave amplitude) ([2]; 100 mg/kg i.p., after blue light exposure, FIG. 6): significantly preserves retinal function
- structural integrity of the retina by histology (ONL thickness, photoreceptor count) ([2]; 100 mg/kg i.p., after blue light exposure, FIG. 7): preserved the structural integrity of the retina; also recorded: protects photoreceptors from blue-light induced toxicity
- allodynia with respect to vehicle injected controls ([5]; doses of 300 mg/kg, i.p., FIG. 9): significantly reduced
- reversal of mechanical allodynia ([5]; doses of 30 and 300 mg/kg, FIG. 9 legend): significantly reduced
- capsaicin-induced thermal hyperalgesia [6]: significantly reduces
